In publication PMC9750872, “Ras-mutant cancers are sensitive to small molecule inhibition of V-type ATPases in mice” (Nature biotechnology, 2022):

Columns and labels:
[1] = system: MEFs KRASWT; assay: Cell proliferation of Ras-less MEFs expressing human KRAS/BRAF; settings: Mus musculus
Procedure: (§2) Cell proliferation assays of stable cell lines treated with V-ATPase inhibitors 249C and BafA1, HCQ analog (DC661), KRASG12C inhibitor (AMG510) and autophagy inducer (CMA). For each bar, n = 3. Representative of 3 biological replicates (mean ± SD). Two-sided t-test with no adjustments for multiple comparisons.
(§3) Logarithmically growing cells were plated in antibiotic-free medium supplemented with 2% fetal bovine serum at a density of 5,000 cells per well. The next day, cells were treated in triplicates with increasing doses of in-house small molecule inhibitor drugs and a DMSO vehicle control for 3 days and subsequently assessed for cell viability by measurement of ATP with CellTiter-Glo Luminescent Cell Viability Assay (Promega). Signal intensity was read on a Glomax™ 96 Microplate Luminometer (Promega) with GLOMAX software (version 1.9.3) and percent cell survival was calculated based on the reading of vehicle control cells set as 100% using Excel (2012) and GraphPad Prism (version 6)Each compound was tested a minimum of 2 times with n = 3. All cell proliferation assays (cancer cell lines or MEFs) were done in a similar way.

[2] = system: MEFs BRAFV600E; assay: as above; settings: Mus musculus
Procedure: as §2, §3

[3] = system: MEFs KRAS G13D; assay: as above; settings: Mus musculus
Procedure: as §2, §3

[4] = target: T1, mammalian V-ATPase purified from pig kidneys (Sus scrofa, UniProt Q9TVC1); assay: Biochemical V-ATPase (ATP hydrolysis) assay; settings: concentrations as low as 1 μM
T1 construct: the entire V-ATPase complex (800 kDa) was purified as described previously from porcine kidneys; from tissue; host or cells: porcine kidney
Procedure: V-ATPase was purified as described previously from yeast[82] using the detergent dodecylmaltoside and porcine kidney[83] using the detergent glycol-diosgenin. ATPase assays with purified V-ATPase were performed as described previously. 249C (mammalian: 0.1, 1, 10, 100 μM and yeast: 5, 10 and 100 μM) or BafA1 (1 μM) were added to the reaction and compared with a negative control to which only DMSO was added. Enzyme-coupled ATPase biochemical activity assays were performed in a 96-well plate as described previously.

[5] = target: T2, entire mammalian V-ATPase complex (Sus scrofa, UniProt Q9TVC1); assay: Bio-layer interferometry (BLI); format: binding, porcine; settings: biotinylated-249C on streptavidin sensors
T2 construct: the entire V-ATPase complex (800 kDa) was purified as described previously from porcine kidneys; from tissue; host or cells: porcine kidney
Text: Figure 4. […] (A) Model of the reversible assembly of V-ATPase. Cytosolic V1 subunits are depicted in blue and membrane Vo subunits in purple. Upon V-ATPase assembly, ATP is hydrolyzed to ADP accompanied by proton (H^+) pumping and luminal acidification (decrease in pH) (Created with BioRender). […] The amount of subunit B2 present in the membrane fraction indicates the amount of assembled V-ATPase. A representative Western blot is presented. […] Cells were mechanically lysed, and a fraction containing FITC-Dextran-loaded lysosomes was isolated by sedimentation centrifugation. Fluorescence was measured over time to assess pH-dependent quenching following addition of 1 mM magnesium-ATP (predetermined). […] Representative of 5 individual experiments with n = 3 for each is presented (mean ± SD) (D) Mammalian V-ATPase activity measured in the absence and presence of 1 μM 249C and 1 μM BafA1. Data shown are mean ± SD; n = 3. Bio-layer inferometry (BLI) of (E) the entire mammalian V-ATPase complex (association protein concentrations: 30, 60, 120, 240 nM) and (F) the individual human H subunit (ATP6V1H) (association protein concentrations: 16,800 and 21,000 nM) against biotinylated-249C loaded onto streptavidin sensor tips. A reference sensor was subtracted from the signal to blank the system. The ForteBio Octet® Software on the BLI system was used to calculate Kd s. […]

[6] = system: MEFs KRAS G12S; assay: Cell proliferation of Ras-less MEFs expressing human KRAS/BRAF; settings: Mus musculus
Procedure: as §3

[7] = system: MEFs bearing KRASG13D; assay: Macropinocytosis, TMR-dextran uptake; format: cell-based; settings: Mus musculus; 2 μM 249C 18 h, DMSO = 100%; read-out: inhibition of MP
Procedure: (§1) Macropinosome visualization was essentially done as previously described. Cells were plated in black, clear bottom CellCarrier-96 Ultra Microplates (PerkinElmer 6055302) and serum-starved for 24 h. The next day, they were treated with 2 μM 249C (1255) for 18 h followed by addition of 70 kDa TMR-Dextran (Invitrogen D1818) and Hoescht for 2 hours at 37 °C prior to 3 × cold PBS washes and fixation in 4% paraformaldehyde for 30 min. Following 3 × cold PBS washes, mounting medium (Vector Laboratories Inc.) was added and images were captured using an Operetta CLS™ fluorescent microscope for High-Content Analysis (PerkinElmer). Image analysis and quantification was performed with a spot segmentation algorithm using the Perkin Elmer Harmony® PhenoLOGIC™ 3.2 software. Briefly, the images were segmented and individual nuclei (DAPI stained) and cell bodies (by digital phase contrast imaging) were identified. The TMR signal was used for the spot segmentation analysis block. […] Data are presented as spots - number of objects per nucleus. For each cell line, 5 DMSO control and 5 249C-treated wells were imaged and a minimum of 3 images were captured per well. Data representing three independent experiments are presented.

[8] = system: MEFs bearing KRASG12V; assay: Macropinocytosis, TMR-dextran uptake; format: cell-based; settings: Mus musculus; 2 μM 249C 18 h, DMSO = 100%; read-out: inhibition of MP
Procedure: as §1

[9] = system: MEFs bearing BRAFV600E; assay: Macropinocytosis, TMR-dextran uptake; format: cell-based; settings: Mus musculus; 2 μM 249C 18 h, DMSO = 100%; read-out: inhibition of MP
Procedure: as §1

[10] = system: 468 human kinases; assay: KINOMEscan profiling; format: binding; settings: 249C at 10,000 nM
Text: The KINOMEscan™ Profiling Service consisting of 468 human kinases was used to assess 249C inhibitor activity to check for off-target effects as previously described.
Supplementary Fi g u re 12: Compound 249C assessed for off-target effects using the KIN OME scanTM screening platform. (A) Selectivity (S-score) for 249C wher e the sco re is a qu antitative measu re o f compound selectivity against human kinases. It is calculate b y dividing the number of k inases that compounds bi nd to b y the total number of distinct kinases tested, excluding mutant variants (S = number of hits / number of assa ys). 1 hit out of >400 kinases is reported for test compound (249C) = 0.002. S(35) = number of non- mutant kinases with % ctrl <35/number of non- mutant kinases; (B) Kinome interaction map for 249C at 10,000 nM. Each red dot indicates a kinase found to bind, where larger dots indicate higher affinit y interactions.
1 Tyrosine Kinase (TK) out of >400 kinases ( created in TREEspotTM ) with low affinity. This is calculated using
Dissociation constants (Kds) were determined using 249C at 30,000 nM, Hill slopes were set to - 1 and curves were fitted using a non- linear least square fit with the […]
(1 picture or pasted object on this page, not shown here)

T2 sequence (Q9TVC1 whole entry): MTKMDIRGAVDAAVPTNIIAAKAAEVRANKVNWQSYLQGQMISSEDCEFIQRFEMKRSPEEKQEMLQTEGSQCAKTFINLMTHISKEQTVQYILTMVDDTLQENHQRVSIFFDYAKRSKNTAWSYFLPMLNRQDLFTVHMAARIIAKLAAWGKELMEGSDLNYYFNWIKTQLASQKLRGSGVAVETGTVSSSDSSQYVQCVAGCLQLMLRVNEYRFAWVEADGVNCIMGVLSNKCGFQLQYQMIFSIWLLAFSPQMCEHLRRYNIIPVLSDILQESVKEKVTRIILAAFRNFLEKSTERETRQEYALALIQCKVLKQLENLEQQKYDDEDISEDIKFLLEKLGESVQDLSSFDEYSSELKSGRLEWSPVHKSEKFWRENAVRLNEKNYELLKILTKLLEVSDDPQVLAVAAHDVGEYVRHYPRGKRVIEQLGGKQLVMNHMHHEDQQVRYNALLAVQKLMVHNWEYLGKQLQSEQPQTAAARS
T2 sequence (Q29048 whole entry partner): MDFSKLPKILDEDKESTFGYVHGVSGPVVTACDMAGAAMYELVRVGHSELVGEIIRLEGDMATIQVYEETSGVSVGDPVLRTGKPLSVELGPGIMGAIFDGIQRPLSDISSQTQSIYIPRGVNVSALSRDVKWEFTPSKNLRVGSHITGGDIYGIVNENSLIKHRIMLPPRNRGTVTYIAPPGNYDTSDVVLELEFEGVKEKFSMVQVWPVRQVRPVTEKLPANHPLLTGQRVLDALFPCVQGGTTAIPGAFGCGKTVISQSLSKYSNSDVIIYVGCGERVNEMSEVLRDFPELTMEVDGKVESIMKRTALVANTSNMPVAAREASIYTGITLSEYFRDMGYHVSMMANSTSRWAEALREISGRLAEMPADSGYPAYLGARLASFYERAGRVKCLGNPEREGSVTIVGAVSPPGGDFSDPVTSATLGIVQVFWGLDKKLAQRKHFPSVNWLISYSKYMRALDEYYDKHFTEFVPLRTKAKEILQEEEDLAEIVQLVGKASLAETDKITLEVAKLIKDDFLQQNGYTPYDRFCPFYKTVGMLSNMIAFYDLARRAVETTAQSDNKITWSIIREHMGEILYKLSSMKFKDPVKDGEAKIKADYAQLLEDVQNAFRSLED
T1 sequence (Q9TVC1 whole entry): as the sequence (Q9TVC1 whole entry) above
T1 sequence (Q29048 whole entry partner): as the sequence (Q29048 whole entry partner) above

## CN1CCOC(CNC(=O)C2(C)C(c3ccc(Cl)o3)C(c3ccc(F)cc3F)=NN2c2ccc(F)cc2F)C1 (stereo not shown) [Compound 249C]
[1]
  IC50: 1250 nM
[2]
  IC50: 110 nM
[3]
  IC50: 70 nM
[4]
  ATP hydrolysis of intact mammalian V-ATPase: blocked ATP hydrolysis
[5]
  Kd: 23 nM
[6]
  IC50: 230 nM
[7]
  inhibition at 2 µM: 94%
[8]
  inhibition at 2 µM: 73%
[9]
  inhibition at 2 µM: 90%
[10]
  number of kinases found to bind out of >400 kinases: 1
